Measured values from patent publication US20190269705A1, “METHODS AND MATERIALS FOR TREATING GRAFT VERSUS HOST DISEASE” (Regents of the University of Minnesota, priority 2017, published 2019).
“Also recorded” adds a separate entry of the source.

Legend:
Th1 cells = test: RNA-Seq and gene set enrichment analysis, Th1; type: cell-based, mouse; details: Th1 Cells: Increased Pathways; HALLMARK_P53_PATHWAY
Procedure: (§1) ATAC-Seq: Crude nuclei pellets were isolated as described elsewhere (see, e.g., Buenrostro et al., 2013 Nat Meth. 10(12):1213-1218) with modifications. Briefly, naïve CD4 T cells were skewed to Th1 and Th17 subsets in vitro with vehicle or in the presence of 500 nM CB839. At Day 5, T cells were re-isolated for CD4+ cells using Miltenyi CD4+ negative selection kit (Cat #: 130-104-454). 1×10^5 cells were removed for nuclei extraction in ATAC-Seq lysing buffer. Cells were exposed to Tn5+ adaptor proteins from Nextera DNA for 30 min at 37° C. and immediately placed on ice. Transposed eluate was amplified via PCR using Nextera DNA preparation kit (Illumina, Cat #: FC-121-1030), NEBNext High-fidelity 2× PCR mix (New England Labs, Cat #: M0541), and multiplexed (Illumina, Cat #: FC-121-1011). Samples were purified using Zymo DNA cleanup kit (Cat #: D4011). QC of samples was run on bioanalyzer before being sent for sequencing. RNA-Seq: Th1 and Th17 cells skewed with or without CB839 were isolated as previously described and total RNA extracted (Qiagen RNEasy Mini kit, Cat #: 74104). RNA was sent to VANTAGE core at Vanderbilt University and sequenced on HiSeq 2500. n=3 for each sample was analyzed. Samples were analyzed using the R program DESeq2. GSEA was performed using MSigDB.
(§2) Th1 and Th17 cells were skewed with or without CB839 over 5 days and total RNA extracted for RNAseq (Cat #: 74104). RNA was sent to VANderbilt Technologies for Advanced GEnomics (VANTAGE) core at Vanderbilt University. Libraries were prepared using 50 ng of total RNA using the NEBNext Ultra RNA Library Kit for Illumina (Cat #E7530) and sequenced on HiSeq3000 at 75 bp paired-end. Each sample was analyzed in triplicate. Sequencing reads were aligned against the Mouse GENCODE genome, Version M14 (Jan. 2017 freeze, GRCm38, Ensembl 89) using the Spliced Transcripts Alignment to a Reference (STAR) software (ref: 26187010 and 23104886). Reads were preprocessed and index using SAMtools (ref: 19505943). Mapped reads were assigned to gene features and quantified using featureCounts (ref: 24227677). Normalization and differential expression was performed using DESeq2 (Love et al., 2014). Skewed lymphocytes with and without CB839 were compared in both Th1 and Th17 groups. […] The top 200 most differentially expressed genes were used for unsupervised hierarchical cluster analysis and visualized using heatmap representations.

Th17 cells = test: RNA-Seq and gene set enrichment analysis, Th17; type: cell-based, mouse
Procedure: as §1, §2

[1] = Th17 Cells: Decreased Pathways, HALLMARK_CHOLESTEROL_HOMEOSTASIS
[2] = Th17 Cells: Decreased Pathways, HALLMARK_E2F_TARGETS
[3] = Th17 Cells: Decreased Pathways, HALLMARK_G2M_CHECKPOINT
[4] = Th17 Cells: Decreased Pathways, HALLMARK_GLYCOLYSIS
[5] = Th17 Cells: Decreased Pathways, HALLMARK_IL2_STAT5_SIGNALING
[6] = Th17 Cells: Decreased Pathways, HALLMARK_MTORC1_SIGNALING
[7] = Th17 Cells: Decreased Pathways, HALLMARK_MYC_TARGETS_V1
[8] = Th17 Cells: Decreased Pathways, HALLMARK_MYC_TARGETS_V2
[9] = Th17 Cells: Decreased Pathways, HALLMARK_TNFA_SIGNALING_VIA_NFKB
[10] = Th17 Cells: Decreased Pathways, HALLMARK_UNFOLDED_PROTEIN_RESPONSE
[11] = Th17 Cells: Increased Pathways, HALLMARK_APICAL_JUNCTION
[12] = Th17 Cells: Increased Pathways, HALLMARK_COMPLEMENT
[13] = Th17 Cells: Increased Pathways, HALLMARK_EPITHELIAL_MESENCHYMAL_TRANSITION
[14] = Th17 Cells: Increased Pathways, HALLMARK_HYPOXIA
[15] = Th17 Cells: Increased Pathways, HALLMARK_INFLAMMATORY_RESPONSE
[16] = Th17 Cells: Increased Pathways, HALLMARK_INTERFERON_GAMMA_RESPONSE
[17] = Th17 Cells: Increased Pathways, HALLMARK_MYOGENESIS
[18] = Th17 Cells: Increased Pathways, HALLMARK_P53_PATHWAY
[19] = Th17 Cells: Increased Pathways, HALLMARK_TNFA_SIGNALING_VIA_NFKB
[20] = Th17 Cells: Increased Pathways, HALLMARK_XENOBIOTIC_METABOLISM

O=C(Cc1cccc(OC(F)(F)F)c1)Nc1ccc(CCCCc2nnc(NC(=O)Cc3ccccn3)s2)nn1 [CB839]
# Genes in Overlap (k) (Th1 cells): 30 | k/K (Th1 cells): 0.15 | compensation by GLS2 at the RNA level (Th17 cells; Th17, CB839-treated): No compensation by GLS2 at the RNA level | direction of the 200 genes with the most altered expression (Th17 cells; Th17, CB839 vs vehicle): more of the most changed genes were downregulated; also recorded: more of these genes were downregulated | gene set enrichment: cell cycle, mTORC1, Myc, IL2 signaling pathways (Th17 cells; Th17, CB839 vs vehicle): downregulated | # Genes in Overlap (k) (Th17 cells; [1]): 25 | k/K (Th17 cells; [1]): 0.3378 | # Genes in Overlap (k) (Th17 cells; [2]): 107 | k/K (Th17 cells; [2]): 0.535 | # Genes in Overlap (k) (Th17 cells; [3]): 94 | k/K (Th17 cells; [3]): 0.47 | # Genes in Overlap (k) (Th17 cells; [4]): 31 | k/K (Th17 cells; [4]): 0.155 | # Genes in Overlap (k) (Th17 cells; [5]): 39 | k/K (Th17 cells; [5]): 0.195 | # Genes in Overlap (k) (Th17 cells; [6]): 70 | k/K (Th17 cells; [6]): 0.35 | # Genes in Overlap (k) (Th17 cells; [7]): 75 | k/K (Th17 cells; [7]): 0.375 | # Genes in Overlap (k) (Th17 cells; [8]): 31 | k/K (Th17 cells; [8]): 0.5345 | # Genes in Overlap (k) (Th17 cells; [9]): 34 | k/K (Th17 cells; [9]): 0.17 | # Genes in Overlap (k) (Th17 cells; [10]): 29 | k/K (Th17 cells; [10]): 0.2566 | # Genes in Overlap (k) (Th17 cells; [11]): 19 | k/K (Th17 cells; [11]): 0.095 | # Genes in Overlap (k) (Th17 cells; [12]): 17 | k/K (Th17 cells; [12]): 0.085 | # Genes in Overlap (k) (Th17 cells; [13]): 16 | k/K (Th17 cells; [13]): 0.08 | # Genes in Overlap (k) (Th17 cells; [14]): 15 | k/K (Th17 cells; [14]): 0.075 | # Genes in Overlap (k) (Th17 cells; [15]): 16 | k/K (Th17 cells; [15]): 0.08 | # Genes in Overlap (k) (Th17 cells; [16]): 25 | k/K (Th17 cells; [16]): 0.125 | # Genes in Overlap (k) (Th17 cells; [17]): 18 | k/K (Th17 cells; [17]): 0.09 | # Genes in Overlap (k) (Th17 cells; [18]): 19 | k/K (Th17 cells; [18]): 0.095 | # Genes in Overlap (k) (Th17 cells; [19]): 17 | k/K (Th17 cells; [19]): 0.085 | # Genes in Overlap (k) (Th17 cells; [20]): 17 | k/K (Th17 cells; [20]): 0.085
